Measurements taken from patent US8501770B2 (ArQule, Inc., priority 2009, dated 2013).

Biological target: Full-length inactive AKT1 (Homo sapiens, UniProt P31749)
Assay: Inactive Akt Alpha Screen Assay
Format: biochemical
Settings: values not marked with "*"; read-out: Akt1 IC50, (AlphaScreen)
How it was run: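 AlphaScreen read-out (excitation 640 nm, emission 570 nm) after 90 min incubation at room temperature in the dark. Signal comes from crosstide phosphorylation by AKT1, which was activated by added PDK1, MAPKAPK2, ATP and lipid vesicles, captured via phospho-AKT substrate antibody and streptavidin beads.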

Full-length inactive AKT1, sequence (P31749 whole entry): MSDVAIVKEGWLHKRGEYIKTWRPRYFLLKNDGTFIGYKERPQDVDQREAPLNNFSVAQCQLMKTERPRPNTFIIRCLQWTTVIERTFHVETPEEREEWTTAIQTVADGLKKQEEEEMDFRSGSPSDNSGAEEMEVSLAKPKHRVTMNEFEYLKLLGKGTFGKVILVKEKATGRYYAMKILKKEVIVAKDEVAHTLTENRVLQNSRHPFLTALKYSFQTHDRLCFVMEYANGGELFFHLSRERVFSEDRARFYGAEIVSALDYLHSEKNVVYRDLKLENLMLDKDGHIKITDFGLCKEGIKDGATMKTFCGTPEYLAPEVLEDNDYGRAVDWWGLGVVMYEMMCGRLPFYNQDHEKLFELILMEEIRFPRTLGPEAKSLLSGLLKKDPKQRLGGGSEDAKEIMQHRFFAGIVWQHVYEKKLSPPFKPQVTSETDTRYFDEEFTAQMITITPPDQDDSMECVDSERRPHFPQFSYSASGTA

| SMILES | IC50 |
| --- | --- |
| Cc1ccc2nc(-c3cccnc3N)n(-c3ccc(CC(=O)c4ccccc4)cc3)c2n1 [Example 349, 2-(4-(2-(2-aminopyridin-3-yl)-5-methyl-3H-imidazo[4,5-b]pyridin-3-yl)phenyl)-1-phenylethanone] | 180 nM |
| CC(C)(C)OC(=O)NC1(c2ccc(-n3c(-c4cccnc4N)nc4ccc(-c5ccccc5)nc43)cc2)CCC1 [Example 350, tert-butyl (1-(4-(2-(2-aminopyridin-3-yl)-5-phenyl-3H-imidazo[4,5-b]pyridin-3-yl)phenyl)cyclobutyl)carbamate] | 1400 nM |
| CC(C)(C)OC(=O)NCc1ccc(-n2c(-c3cccnc3N)nc3ccc(-c4cn[nH]c4)nc32)cc1 [Example 354, tert-butyl 4-(2-(2-aminopyridin-3-yl)-5-(1H-pyrazol-4-yl)-3H-imidazo[4,5-b]pyridin-3-yl)benzylcarbamate] | 150 nM |
| CC(C)(C)OC(=O)NCc1ccc(-n2c(-c3cccnc3N)nc3ccc(-c4ccccc4)nc32)cc1 [Example 355, tert-butyl 4-(2-(2-aminopyridin-3-yl)-5-phenyl-3H-imidazo[4,5-b]pyridin-3-yl)benzylcarbamate] | 270 nM |
| Nc1ncccc1-c1nc2cc(-c3ccccc3)cnc2n1-c1ccc(C2(N)CCC2)cc1 [Example 358, 3-(3-(4-(1-aminocyclobutyl)phenyl)-6-phenyl-3H-imidazo[4,5-b]pyridin-2-yl)pyridin-2-amine] | 55 nM |
| CC(=O)Nc1cccc(-c2cnc3c(c2)nc(-c2cccnc2N)n3-c2ccc(C3(N)CCC3)cc2)c1 [Example 359, N-(3-(3-(4-(1-aminocyclobutyl)phenyl)-2-(2-aminopyridin-3-yl)-3H-imidazo[4,5-b]pyridin-6-yl)phenyl)acetamide] | 57 nM |
| COC(=O)C1(c2ccc(-n3c(-c4cccnc4N)nc4cc(-c5ccccc5)cnc43)cc2)CCC1 [Example 361, methyl 1-(4-(2-(2-aminopyridin-3-yl)-6-phenyl-3H-imidazo[4,5-b]pyridin-3-yl)phenyl)cyclobutanecarboxylate] | 360 nM |
| Nc1ncccc1-c1nc2cc(-c3ccccc3)cnc2n1-c1ccc(C2(C(=O)O)CCC2)cc1 [Example 363, 1-(4-(2-(2-aminopyridin-3-yl)-6-phenyl-3H-imidazo[4,5-b]pyridin-3-yl)phenyl)cyclobutanecarboxylic acid] | 250 nM |
| CS(=O)(=O)Nc1ncccc1-c1nc2ccc(-c3ccccc3)nc2n1-c1ccc(C2(NS(C)(=O)=O)CCC2)cc1 [Example 366, N-(3-(3-(4-(1-(methylsulfonamido)cyclobutyl)phenyl)-5-phenyl-3H-imidazo[4,5-b]pyridin-2-yl)pyridin-2-yl)methanesulfonamide] | 140 nM |
| CS(=O)(=O)NC1(c2ccc(-n3c(-c4cccnc4N)nc4ccc(-c5ccccc5)nc43)cc2)CCC1 [Example 367, N-(1-(4-(2-(2-aminopyridin-3-yl)-5-phenyl-3H-imidazo[4,5-b]pyridin-3-yl)phenyl)cyclobutyl)methanesulfonamide] | 180 nM |
| CNC(=O)C1(c2ccc(-n3c(-c4cccnc4N)nc4ccc(-c5ccccc5)nc43)cc2)CCC1 [Example 378, 1-(4-(2-(2-aminopyridin-3-yl)-5-phenyl-3H-imidazo[4,5-b]pyridin-3-yl)phenyl)-N-methylcyclobutanecarboxamide] | 93 nM |
| Nc1ncccc1-c1nc2ccc(-c3ccccc3)nc2n1-c1ccc(C2(C(=O)NCCO)CCC2)cc1 [Example 379, 1-(4-(2-(2-aminopyridin-3-yl)-5-phenyl-3H-imidazo[4,5-b]pyridin-3-yl)phenyl)-N-(2-hydroxyethyl)cyclobutanecarboxamide] | 290 nM |
| Nc1ncccc1-c1nc2ccc(-c3ccccc3)nc2n1-c1ccc(C2(NC(=O)Nc3ccccc3)CCC2)cc1 [Example 381, 1-(1-(4-(2-(2-aminopyridin-3-yl)-5-phenyl-3H-imidazo[4,5-b]pyridin-3-yl)phenyl)cyclobutyl)-3-phenylurea] | 54 nM |

These reach a lower IC50. Values come first.

| IC50 | SMILES |
| --- | --- |
| 27 nM | NCc1ccc(-n2c(-c3cccnc3N)nc3ccc(-c4cccc(C(=O)O)c4)nc32)cc1 [Example 357, 3-(3-(4-(aminomethyl)phenyl)-2-(2-aminopyridin-3-yl)-3H-imidazo[4,5-b]pyridin-5-yl)benzoic acid] |
| 1.6 nM | CCOC(=O)c1cccc(-c2ccc3nc(-c4cccnc4N)n(-c4ccc(C5(N)CCC5)cc4)c3n2)c1 [Example 364, ethyl 3-(3-(4-(1-aminocyclobutyl)phenyl)-2-(2-aminopyridin-3-yl)-3H-imidazo[4,5-b]pyridin-5-yl)benzoate] |
| 3 nM | NC(=O)c1cccc(-c2ccc3nc(-c4cccnc4N)n(-c4ccc(C5(N)CCC5)cc4)c3n2)c1 [Example 365, 3-(3-(4-(1-aminocyclobutyl)phenyl)-2-(2-aminopyridin-3-yl)-3H-imidazo[4,5-b]pyridin-5-yl)benzamide] |
| 10 nM | Nc1ncc(Cl)cc1-c1nc2ccc(-c3ccccc3)nc2n1-c1ccc(C2(N)CCC2)cc1 [Example 368, 3-(3-(4-(1-aminocyclobutyl)phenyl)-5-phenyl-3H-imidazo[4,5-b]pyridin-2-yl)-5-chloropyridin-2-amine] |
| 5.4 nM | CNC(=O)c1cccc(-c2ccc3nc(-c4cccnc4N)n(-c4ccc(CN)cc4)c3n2)c1 [Example 369, 3-(3-(4-(aminomethyl)phenyl)-2-(2-aminopyridin-3-yl)-3H-imidazo[4,5-b]pyridin-5-yl)-N-methylbenzamide] |
| 4.6 nM | CNC(=O)c1cccc(-c2ccc3nc(-c4cccnc4N)n(-c4ccc(C5(N)CCC5)cc4)c3n2)c1 [Example 370, 3-(3-(4-(1-aminocyclobutyl)phenyl)-2-(2-aminopyridin-3-yl)-3H-imidazo[4,5-b]pyridin-5-yl)-N-methylbenzamide] |
| 2.1 nM | CC(=O)c1cccc(-c2ccc3nc(-c4cccnc4N)n(-c4ccc(C5(N)CCC5)cc4)c3n2)c1 [Example 372, 1-(3-(3-(4-(1-aminocyclobutyl)phenyl)-2-(2-aminopyridin-3-yl)-3H-imidazo[4,5-b]pyridin-5-yl)phenyl)ethanone] |
| 6.6 nM | Nc1ncccc1-c1nc2ccc(-c3ccccc3)nc2n1-c1ccc(C2(N)COC2)cc1 [Example 373, 3-(3-(4-(3-aminooxetan-3-yl)phenyl)-5-phenyl-3H-imidazo[4,5-b]pyridin-2-yl)pyridin-2-amine] |
| 1.3 nM | Nc1ncccc1-c1nc2ccc(-c3cccc(CO)c3)nc2n1-c1ccc(C2(N)CCC2)cc1 [Example 374, (3-(3-(4-(1-aminocyclobutyl)phenyl)-2-(2-aminopyridin-3-yl)-3H-imidazo[4,5-b]pyridin-5-yl)phenyl)methanol] |
| 1.4 nM | CS(=O)(=O)Nc1cccc(-c2ccc3nc(-c4cccnc4N)n(-c4ccc(C5(N)CCC5)cc4)c3n2)c1 [Example 375, N-(3-(3-(4-(1-aminocyclobutyl)phenyl)-2-(2-aminopyridin-3-yl)-3H-imidazo[4,5-b]pyridin-5-yl)phenyl)methanesulfonamide] |
| 3.8 nM | Nc1ncccc1-c1nc2ccc(-c3cccc(C(=O)O)c3)nc2n1-c1ccc(C2(N)CCC2)cc1 [Example 376, 3-(3-(4-(1-aminocyclobutyl)phenyl)-2-(2-3aminopyridin-3-yl)-H-imidazo[4,5-b]pyridin-5-yl)benzoic acid] |
| 3.3 nM | CN(C)C(=O)c1cccc(-c2ccc3nc(-c4cccnc4N)n(-c4ccc(C5(N)CCC5)cc4)c3n2)c1 [Example 380, 3-(3-(4-(1-aminocyclobutyl)phenyl)-2-(2-aminopyridin-3-yl)-3H-imidazo[4,5-b]pyridin-5-yl)-N,N-dimethylbenzamide] |
| 10 nM | Nc1ncccc1-c1nc2ccc(-c3ccccc3CO)nc2n1-c1ccc(C2(N)CCC2)cc1 [Example 382, (2-(3-(4-(1-aminocyclobutyl)phenyl)-2-(2-aminopyridin-3-yl)-3H-imidazo[4,5-b]pyridin-5-yl)phenyl)methanol] |
| 3.7 nM | Nc1ncccc1-c1nc2ccc(-c3ccc(CO)cc3)nc2n1-c1ccc(C2(N)CCC2)cc1 [Example 383, (4-(3-(4-(1-aminocyclobutyl)phenyl)-2-(2-aminopyridin-3-yl)-3H-imidazo[4,5-b]pyridin-5-yl)phenyl)methanol] |
| 37 nM | NC(=O)c1ccccc1-c1ccc2nc(-c3cccnc3N)n(-c3ccc(C4(N)CCC4)cc3)c2n1 [Example 384, 2-(3-(4-(1-aminocyclobutyl)phenyl)-2-(2-aminopyridin-3-yl)-3H-imidazo[4,5-b]pyridin-5-yl)benzamide] |
| 2.8 nM | Nc1ncccc1-c1nc2ccc(-c3cccc(C(=O)NCCO)c3)nc2n1-c1ccc(C2(N)CCC2)cc1 [Example 385, 3-(3-(4-(1-aminocyclobutyl)phenyl)-2-(2-aminopyridin-3-yl)-3H-imidazo[4,5-b]pyridin-5-yl)-N-(2-hydroxyethyl)benzamide] |
| 2.3 nM | CN(CCO)C(=O)c1cccc(-c2ccc3nc(-c4cccnc4N)n(-c4ccc(C5(N)CCC5)cc4)c3n2)c1 [Example 386, 3-(3-(4-(1-aminocyclobutyl)phenyl)-2-(2-aminopyridin-3-yl)-3H-imidazo[4,5-b]pyridin-5-yl)-N-(2-hydroxyethyl)-N-methylbenzamide] |
| 8.7 nM | NC(=O)c1ccc(-c2ccc3nc(-c4cccnc4N)n(-c4ccc(C5(N)CCC5)cc4)c3n2)cc1 [Example 387, 4-(3-(4-(1-aminocyclobutyl)phenyl)-2-(2-aminopyridin-3-yl)-3H-imidazo[4,5-b]pyridin-5-yl)benzamide] |
| 3 nM | Nc1ncccc1-c1nc2ccc(-c3cccc(C(=O)N4CCOCC4)c3)nc2n1-c1ccc(C2(N)CCC2)cc1 [Example 388, (3-(3-(4-(1-aminocyclobutyl)phenyl)-2-(2-aminopyridin-3-yl)-3H-imidazo[4,5-b]pyridin-5-yl)phenyl)(morpholino)methanone] |
| 1.6 nM | Nc1ncccc1-c1nc2ccc(-c3cccc(O)c3)nc2n1-c1ccc(C2(N)CCC2)cc1 [Example 389, 3-(3-(4-(1-aminocyclobutyl)phenyl)-2-(2-aminopyridin-3-yl)-3H-imidazo[4,5-b]pyridin-5-yl)phenol] |
